Calls of active or inactive are those of the source. How the source made its calls: active means viability on the fitted dose curve at most 10% of control; inactive means the rest.
Test system: NCI-H1876 complex spheroid viability
Assay: Anticancer human tumor NCI-H1876 cell line growth inhibition [LSD1];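 on IC50: spheroids exposed to compounds for one week before readout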;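 on viability, T/C: spheroids exposed to compounds for one week before readout; 100% = DMSO vehicle-treated spheroids so lower means fewer viable cells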
Conditions: for IC50: curve of first compound; for viability, T/C: stronger effect = lower value
Summary of the method: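 Complex spheroids of tumor cells with HUVEC and human MSCs, exposed to iadademstat combined with other agents. Each agent tested in half-log steps from near clinical Cmax (else 10 microM top), DMSO ≤0.25%.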

[1] = second compound 0.1 µM, first compound 0.000949 µM
[2] = second compound 0.1 µM, first compound 0.003 µM
[3] = second compound 0.1 µM, first compound 0.00949 µM
[4] = second compound 0.1 µM, first compound 0.03 µM
[5] = second compound 0.1 µM, first compound 0.0949 µM
[6] = second compound 0.1 µM, first compound 0.3 µM
[7] = second compound 0.316 µM, first compound 0.000949 µM
[8] = second compound 0.316 µM, first compound 0.003 µM
[9] = second compound 0.316 µM, first compound 0.00949 µM
[10] = second compound 0.316 µM, first compound 0.03 µM
[11] = second compound 0.316 µM, first compound 0.0949 µM
[12] = second compound 0.316 µM, first compound 0.3 µM
[13] = second compound 1 µM, first compound 0.000949 µM
[14] = second compound 1 µM, first compound 0.003 µM
[15] = second compound 1 µM, first compound 0.00949 µM
[16] = second compound 1 µM, first compound 0.03 µM
[17] = second compound 1 µM, first compound 0.0949 µM
[18] = second compound 1 µM, first compound 0.3 µM
[19] = second compound 3.16 µM, first compound 0.000949 µM
[20] = second compound 3.16 µM, first compound 0.003 µM
[21] = second compound 3.16 µM, first compound 0.00949 µM
[22] = second compound 3.16 µM, first compound 0.03 µM
[23] = second compound 3.16 µM, first compound 0.0949 µM
[24] = second compound 3.16 µM, first compound 0.3 µM
[25] = second compound 10 µM, first compound 0.000949 µM
[26] = second compound 10 µM, first compound 0.003 µM
[27] = second compound 10 µM, first compound 0.00949 µM
[28] = second compound 10 µM, first compound 0.03 µM
[29] = second compound 10 µM, first compound 0.0949 µM
[30] = second compound 10 µM, first compound 0.3 µM

CC[C@@]1(O)C(=O)OCc2c1cc1n(c2=O)Cc2cc3c(CN(C)C)c(O)ccc3nc2-1 + NC1CCC(NC2CC2c2ccccc2)CC1
inactive: viability, T/C (second compound 0.1 µM, first compound 0.000316 µM) 105% | outcome (second compound 0.1 µM, first compound 0.001 µM) | viability, T/C (second compound 0.1 µM, first compound 0.00316 µM) 33.1% | viability, T/C (second compound 0.1 µM, first compound 0.01 µM) 23.1% | viability, T/C (second compound 0.1 µM, first compound 0.0316 µM) 12.1% | viability, T/C (second compound 0.1 µM, first compound 0.1 µM) 16.7% | viability, T/C (second compound 0.316 µM, first compound 0.000316 µM) 110% | viability, T/C (second compound 0.316 µM, first compound 0.001 µM) 94.2% | viability, T/C (second compound 0.316 µM, first compound 0.00316 µM) 27.5% | viability, T/C (second compound 0.316 µM, first compound 0.01 µM) 29.9% | viability, T/C (second compound 0.316 µM, first compound 0.0316 µM) 17.3% | viability, T/C (second compound 0.316 µM, first compound 0.1 µM) 14.7% | viability, T/C (second compound 1 µM, first compound 0.000316 µM) 113% | viability, T/C (second compound 1 µM, first compound 0.001 µM) 92.3% | viability, T/C (second compound 1 µM, first compound 0.00316 µM) 27.6% | viability, T/C (second compound 1 µM, first compound 0.01 µM) 31.8% | viability, T/C (second compound 1 µM, first compound 0.0316 µM) 18.4% | viability, T/C (second compound 1 µM, first compound 0.1 µM) 8.81% | viability, T/C (second compound 3.16 µM, first compound 0.000316 µM) 112% | viability, T/C (second compound 3.16 µM, first compound 0.001 µM) 102% | viability, T/C (second compound 3.16 µM, first compound 0.00316 µM) 25% | viability, T/C (second compound 3.16 µM, first compound 0.01 µM) 19.3% | viability, T/C (second compound 3.16 µM, first compound 0.0316 µM) 19% | viability, T/C (second compound 3.16 µM, first compound 0.1 µM) 9.21% | viability, T/C (second compound 10 µM, first compound 0.000316 µM) 112% | viability, T/C (second compound 10 µM, first compound 0.001 µM) 90.3% | viability, T/C (second compound 10 µM, first compound 0.00316 µM) 24.2% | viability, T/C (second compound 10 µM, first compound 0.01 µM) 24.3% | viability, T/C (second compound 10 µM, first compound 0.0316 µM) 20% | viability, T/C (second compound 10 µM, first compound 0.1 µM) 19.4%
2.15 nM: IC50 (second compound 0.316 µM)
2.18 nM: IC50 (second compound 3.16 µM)
1.61 nM: IC50 (second compound 0.1 µM)
2.02 nM: IC50 (second compound 10 µM)
2.14 nM: IC50 (second compound 1 µM)

CCc1c2c(nc3ccc(O)cc13)-c1cc3c(c(=O)n1C2)COC(=O)[C@]3(O)CC + NC1CCC(NC2CC2c2ccccc2)CC1
inactive: viability, T/C [7] 9.1% | viability, T/C [8] 7.39% | viability, T/C [9] 26.4% | viability, T/C [10] 34.6% | viability, T/C [11] 0.46% | viability, T/C [12] 0.47% | viability, T/C [25] 9.76% | viability, T/C [26] 7.48% | viability, T/C [27] 31.4% | viability, T/C [28] 8.78% | viability, T/C [29] 15.6% | viability, T/C [30] 0.65%
active: viability, T/C [1] 8.41% | viability, T/C [2] 6.69% | viability, T/C [3] 4.51% | viability, T/C [4] 17% | viability, T/C [5] 0.42% | viability, T/C [6] 0.51% | viability, T/C [13] 9.13% | viability, T/C [14] 7.08% | viability, T/C [15] 3.54% | viability, T/C [16] 16.9% | viability, T/C [17] 0.38% | viability, T/C [18] 0.41% | viability, T/C [19] 7.88% | viability, T/C [20] 7% | viability, T/C [21] 4.05% | viability, T/C [22] 8.64% | viability, T/C [23] 0.31% | viability, T/C [24] 0.45%
< 0.949 nM: IC50 (second compound 0.1 µM) | IC50 (second compound 0.316 µM) | IC50 (second compound 1 µM) | IC50 (second compound 3.16 µM) | IC50 (second compound 10 µM)

COc1cc(C2c3cc4c(cc3C(OC3OC5COC(C)OC5C(O)C3O)C3COC(=O)C23)OCO4)cc(OC)c1O (stereo not given) + NC1CCC(NC2CC2c2ccccc2)CC1
48.1 nM: IC50 (second compound 1 µM)
61.4 nM: IC50 (second compound 0.1 µM)
50.9 nM: IC50 (second compound 3.16 µM)
43.9 nM: IC50 (second compound 10 µM)
49.2 nM: IC50 (second compound 0.316 µM)
inactive: viability, T/C [3] 91.7% | viability, T/C [4] 79.6% | viability, T/C [5] 31.1% | viability, T/C [6] 23.5% | viability, T/C (second compound 0.1 µM, first compound 0.949 µM) 12.2% | viability, T/C (second compound 0.1 µM, first compound 3 µM) 11.8% | viability, T/C [9] 89% | viability, T/C [10] 68.6% | viability, T/C [11] 24.9% | viability, T/C [12] 22.3% | viability, T/C (second compound 0.316 µM, first compound 0.949 µM) 19.2% | viability, T/C (second compound 0.316 µM, first compound 3 µM) 10.7% | viability, T/C [15] 91.7% | viability, T/C [16] 66.4% | viability, T/C [17] 26% | viability, T/C [18] 22% | viability, T/C (second compound 1 µM, first compound 0.949 µM) 14.4% | viability, T/C (second compound 1 µM, first compound 3 µM) 18.9% | viability, T/C [21] 94.5% | viability, T/C [22] 64.8% | viability, T/C [23] 29.7% | viability, T/C [24] 29.5% | viability, T/C (second compound 3.16 µM, first compound 0.949 µM) 18.2% | viability, T/C (second compound 3.16 µM, first compound 3 µM) 13.7% | viability, T/C [27] 82.7% | viability, T/C [28] 62.5% | viability, T/C [29] 24.3% | viability, T/C [30] 23.4% | viability, T/C (second compound 10 µM, first compound 0.949 µM) 18.1% | viability, T/C (second compound 10 µM, first compound 3 µM) 14.2%

Nc1ccn(C2OC(CO)C(O)C2(F)F)c(=O)n1 (stereo not given) + NC1CCC(NC2CC2c2ccccc2)CC1
inactive: viability, T/C [1] 111% | viability, T/C [2] 101% | viability, T/C [3] 30.3% | viability, T/C [4] 22.3% | viability, T/C [5] 22.9% | viability, T/C [6] 10.8% | viability, T/C [7] 104% | viability, T/C [8] 96% | viability, T/C [9] 29.7% | viability, T/C [10] 18.1% | viability, T/C [11] 11.7% | viability, T/C [12] 9.66% | viability, T/C [13] 111% | viability, T/C [14] 96.7% | viability, T/C [15] 30.3% | viability, T/C [16] 18.6% | viability, T/C [17] 12.1% | viability, T/C [18] 11.3% | viability, T/C [19] 110% | viability, T/C [20] 107% | viability, T/C [21] 26.2% | viability, T/C [22] 23.2% | viability, T/C [23] 17.9% | viability, T/C [24] 9.56% | viability, T/C [25] 109% | viability, T/C [26] 90.8% | viability, T/C [27] 26.4% | viability, T/C [28] 23.5% | viability, T/C [29] 17.8% | viability, T/C [30] 10.5%
6.75 nM: IC50 (second compound 3.16 µM)
6.69 nM: IC50 (second compound 0.316 µM)
6.25 nM: IC50 (second compound 10 µM)
6.77 nM: IC50 (second compound 1 µM)
6.89 nM: IC50 (second compound 0.1 µM)

Reference: PubChem BioAssay AID1918957 (Molecular Pharmacology Branch, DTP, NCI, 2023)
